# According to article PMC10419174, “WR1065 conjugated to thiol-PEG polymers as novel anticancer prodrugs: broad spectrum efficacy, synergism, and drug resistance reversal” (Frontiers in Oncology, 2023):
# Where two headings read alike, the source gives them in different places.
# Assays:
# [1] = tested on: Malignant pleural mesothelioma HMESO1 cells; details: for Fold increase in efficacy: drug alone ÷ drug in 4SP65-DDP combination
# Method: (§1) The percentage of growth inhibition was calculated as follows: […]
# [2] = Prodrug stability in culture medium with alamarBlue, cell free, 72 h; assay type: in vitro ADME; details: standard growth medium, 37°C
# Method: To determine drug stability in tissue culture medium for short-term treatments, 4SP65 was added to medium containing alamarBlue reagent in 96-well plates and incubated in the absence of cells at 37°C for 72 h. After this incubation period, wells with medium containing alamarBlue alone or both alamarBlue and 4SP65 were assessed for fluorescence readings using a Tecan Infinite 200 PRO plate reader (San Jose, CA, USA).
# Strain-1 NHMECs (M99005) = assay: NHMEC growth, trypan blue exclusion, 48-h treatment; assay type: cell-based, human
# Description: Normal human mammary epithelial cell (NHMEC) strains used to assess potential cytotoxicity of 4SP65 and 1LP65 were established from reduction mammoplasty tissue from a healthy donor (M99005 or ‘Strain-1’) ([53]) or purchased from ATCC (Manassas, VA, USA; batch#70043304 or ‘Strain-2’) or Cell Applications (San Diego, CA, USA; lot#1669 or ‘Strain-3’). Human cancer cell lines including HCC38, MDA-MB-231, A549, National Cancer Institute (NCI)-H460, NCI-H1437, NCI-H1975, DU145, LNCaP, PC3, PANC1, SKOV3, and HL60, which were free of Mycoplasma, were purchased from ATCC. HMESO1, PPMMill, and TOV21G cells, obtained from Dr. Brian Cunniff, were verified to be Mycoplasma negative using the LookOut® Mycoplasma PCR Detection Kit (Sigma-Aldrich) and to match previously annotated DNA fingerprints by the Vermont Integrative Genomics Resource DNA Analysis Facility.
# To assess the effects of 4SP65 or 1LP65 on the growth of normal epithelium, experiments were performed using NHMEC strains from differing donors ([53]). Strain-1 NHMECs were plated at 5,000 cells/well in 24-well plates and allowed to reach 50% confluence before treatment with 0-150 µM 4SP65 for 48 h. Cell viability was determined using a hemocytometer and trypan blue exclusion assay. Two other NHMEC strains, exposed to 0-150 µM 4SP65 or 0-500 µM 1LP65 for 48 h, were handled in the same fashion except that viability of cells in 96-well plates was determined using CyQUANT dye. Due to the short life span of these NHMECs, standard curves were not generated and fluorescence readings were used as a surrogate marker of cell number ([54]).
# [3] = tested on: Malignant pleural mesothelioma PPMMill cells; assay: cells; details: for Fold increase in efficacy: drug alone ÷ drug in 4SP65-DDP combination
# Method: as §1
# Pancreas PANC-1 cells = assay: cells
# Method: as §1
# [4] = 48-h treatment, amifostine ND = not definable up to 500 µM
# [5] = drug alone, 48 h, 4SP65/cisplatin study
# [6] = drug alone, 48 h, 4SP65/cisplatin study, ND = not definable, highest concentration in parentheses
substance,measurement,setting,value
4-star-PEG-S-S-WR1065 [4SP65],GI50,[1]; [4],1.3 ± 0.4 µM
same,IC50,[1]; [4],2.9 ± 1 µM
same,LC99,[1]; [4],7.9 ± 2.6 µM
same,TGI,[1]; [4],2.9 ± 0.8 µM
same,Fold increase in efficacy,[1]; at GI50,1.5 (NS) fold
same,Fold increase in efficacy,[1]; at IC50,1.1 (NS) fold
same,Fold increase in efficacy,"[1]; at LC50, GoE = gain of effect",1.0 (NS) fold
same,Fold increase in efficacy,"[1]; at LC99, GoE = gain of effect",1.1 (NS) fold
same,Fold increase in efficacy,[1]; at TGI,1.3 (NS) fold
same,GI50,[1]; [5],2 ± 0.3 µM
same,IC50,[1]; [5],4.7 ± 0.2 µM
same,TGI,[1]; [5],4.3 ± 0.2 µM
same,LC99,[1]; [6],12.4 ± 0.1 µM
same,change in fluorescence of alamarBlue reagent versus control wells,[2],no significant change
same,IC50,Strain-1 NHMECs (M99005); Strain-1 NHMECs,> 150 µM
same,growth enhancement compared to sham-exposed control cells,"Strain-1 NHMECs (M99005); Strain-1 cells, 5 µM",336%
same,growth enhancement compared to sham-exposed control cells,"Strain-1 NHMECs (M99005); Strain-1 cells, 15 µM",286%
same,growth as % of the control cell growth,"Strain-1 NHMECs (M99005); Strain-1 cells, 50 µM",68%
same,growth pattern,"Strain-1 NHMECs (M99005); Strain-1 cells, 150 µM",growth enhancement
same,GI50,[3]; [4],6 ± 1.7 µM
same,IC50,[3]; [4],7.4 ± 2 µM
same,LC99,[3]; [4],14.8 ± 2.9 µM
same,TGI,[3]; [4],10.6 ± 3.0 µM
same,Fold increase in efficacy,[3]; at GI50,1.3 (NS) fold
same,Fold increase in efficacy,[3]; at IC50,1.3 (NS) fold
same,Fold increase in efficacy,"[3]; at LC50, GoE = gain of effect",1.3 (NS) fold
same,Fold increase in efficacy,"[3]; at LC99, GoE = gain of effect",1.3 (NS) fold
same,Fold increase in efficacy,"[3]; at TGI, GoE = gain of effect",1.3 (NS) fold
same,GI50,[3]; [5],8.4 ± 1.5 µM
same,IC50,[3]; [5],10 ± 1.9 µM
same,LC99,[3]; [6],17.6 ± 3.5 µM
same,TGI,[3]; [6],14.1 ± 3.3 µM
same,CC50,Pancreas PANC-1 cells,5 ± 0.3 µM
same,GI50,Pancreas PANC-1 cells; [4],2.8 ± 0.6 µM
same,IC50,Pancreas PANC-1 cells; [4],3.7 ± 0.6 µM
same,LC99,Pancreas PANC-1 cells; [4],7.0 ± 0.5 µM
same,TGI,Pancreas PANC-1 cells; [4],4.0 ± 0.4 µM
same,Dose reduction value AMF ÷ 4SP65,Pancreas PANC-1 cells; at GI50,39 fold
